Test results as given in US11932638B2, “Ion channel inhibitor compounds for cancer treatment” (Centre National de la Recherche Scientifique, priority 2017, dated 2024).
Like-named read-outs stand apart in the source and are kept apart here.

Target: T1, SK3 channel (Rattus norvegicus, UniProt P70605)
T1 construct: expressed in transfected cells
Test: Conventional manual patch clamp on HEK-rSK3 cells, SK3 channel activity
Assay type: cell-based
Settings: for inhibition at 0.5 µM: 500 nM
Description: Cell Lines Used to Screen the Molecules on the Activity of SKCa Channels (Small Conductance Calcium-Activated Potassium Channel; SK1, SK2 and SK3) and IKCa Channels (Intermediate Conductance Calcium-Activated Potassium Channel, SK4)
Use was made of the HEK 293 T line, a foetal kidney line which was immortalised with the T antigen of the […] simian virus. This cell line is widely used on account of the ease with which these cells can be transfected with plasmids or other transfection vectors. Four stable lines were used for patch clamp experiments: HEK-hSK1, HEK-rSK2, HEK-rSK3 and HEK-IKCa/SK4 which respectively overexpress the SK1, SK2, SK3 and SK4 channels. The lines were obtained via stable transduction (Girault et al., Current Cancer Drug Targets, 2011, 11, 1111-25) and are those already routinely used to assay SK3 modulators (Potier et al. Br J Pharmacol. 2011 January; 162(2):464-79; Sevrain et al., Med. Chem. Commun., 2012, 3, 1471-1478; Sevrain et al., Organic & Biomolecular Chemistry, 2013 Jul. 21; 11(27):4479-87, Berthe W, Sevrain C M, Chantôme A, Bouchet A M, Gueguinou M, Fourbon Y, Potier-Cartereau M, Haelters J P, Couthon-Gourvès H, Vandier C, Jaffrès P A. ChemMedChem. 2016 Jul. 19; 11(14):1531-9). […] These lines therefore enabled us without difficulty to examine the effect of the molecules on the SK3 channel, and also the selectivity thereof by means of the patch clamp technique. The inhibitory activity of the non-toxic molecules was assayed on the activity of the SK3 channel. The selectivity of the molecules was determined by patch clamp on HEK cell models stably expressing the SK3 channel but also the SK1, SK2, SK3 or IKCa/SK4 channels.
Electrophysiology/Patch-Clamp
Patch clamp is a technique allowing measurement of the activity of ion channels by recording macroscopic (whole cell configuration) or microscopic (e.g. inside out configuration) ionic currents through the plasma membrane. For assay of the effect of the molecules on the SKCa/IKCa channels, two complementary techniques were used: conventional, manual patch clamp and automated patch clamp with the Nanion NPC-16 Patchliner Quattro (4 channels) (Potier et al., Mol Cancer Ther 2006, 5, 2946-53; Chantome et al., Exp Cell Res 2009, 315, 3620-30; Potier et al., Biochem Biophys Res Commun 2010, 397, 42-7; Girault et al., Current Cancer Drug Targets, 2011, 11, 1111-25; Sevrain et al., Med. Chem. Commun., 2012, 3, 1471-1478; Sevrain et al., Organic & Biomolecular Chemistry, 2013 Jul. 21; 11(27):4479-87; Chantome et al., Cancer Research, 2013 Aug. 1; 73(15):4852-61, Gueguinou M, Crottès D, Chantôme A, Rapetti-Mauss R, Potier-Cartereau M, Clarysse L, Girault A, Fourbon Y, Jézéquel P, Guérin-Charbonnel C, Fromont G, Martin P, Pellissier B, Schiappa R, Chamorey E, Mignen O, Uguen A, Borgese F, Vandier C, Soriani O. Oncogene. 2017 Jan. 23. doi: 10.1038/onc.2016.501, Berthe W, Sevrain C M, Chantôme A, Bouchet A M, Gueguinou M, Fourbon Y, Potier-Cartereau M, Haelters J P, Couthon-Gourvès H, Vandier C, Jaffrès P A. ChemMedChem. 2016 Jul. 19; 11(14):1531-9, Guéguinou M, Harnois T, Crottes D, Uguen A, Deliot N, Gambade A, Chantôme A, Haelters J P, Jaffrès P A, Jourdan M L, Weber G, Soriani O, Bougnoux P, Mignen O, Bourmeyster N, Constantin B, Lecomte T, Vandier C, Potier-Cartereau M. Oncotarget. 2016 Jun. 14; 7(24):36168-36184. doi: 10.18632/oncotarget.8786).
For conventional patch clamp, the micropipette is filled with an intrapipette medium—IPM (see composition below) and allows measurement of ionic currents at the same time as allowing maintaining of membrane potential (voltage clamp). The experimental device was composed of an anti-vibration table supporting an inverted microscope (Nikon, Eclipse TE 300). The Petri dish (Corning Incorporated, USA), containing the cells was placed on a plexiglass plate attached to the microscope stage. The pipette was connected to the amplifier (Axopatch 200B) as reference electrode which allowed closing of the electrical circuit. […]

SMILES | inhibition at 0.05 µM (50 nM) | inhibition at 0.1 µM (100 nM) | inhibition at 10 µM (10 μM) | inhibition at 0.5 µM | further results
Nc1nc(NC2CCCc3ccccc32)c2ncccc2n1 (stereo not drawn) [Compound 33, N^4-(1,2,3,4-tetrahydronaphthalen-1-yl)pyrido[3,2-d]pyrimidine-2,4-diamine] | 30.5% | 53.2% | 71.5% | – | –
Clc1ccc2ncnc(N[C@H]3CCCc4ccccc43)c2n1 [Compound 133, 6-Chloro-N-[(1S)-tetralin-1-yl]pyrido[3,2-d]pyrimidin-4-amine] | 39% | 56.3% | 67.3% | – | –
c1ccc2c(c1)CCC2Nc1ncnc2cccnc12 (stereo not drawn) [Compound 87, N-(2,3-dihydro-1H-inden-1-yl)pyrido[3,2-d]pyrimidin-4-amine] | 22.9% | – | – | 47.4% | –
Clc1cnc2c(NC3CCCc4ccccc43)ncnc2c1 (stereo not drawn) [Compound 38, 7-Chloro-N-(1,2,3,4-tetrahydronaphthalen-1-yl)pyrido[3,2-d]pyrimidin-4-amine] | 31.4% | 51.9% | 74% | – | –
c1ccc2c(c1)OCCC2Nc1ncnc2cccnc12 (stereo not drawn) [Compound 62, N-(3,4-dihydro-2H-1-benzopyran-4-yl)pyrido[3,2-d]pyrimidin-4-amine] | 32.1% | 46.8% | 54.4% | – | –
c1ccc2c(Nc3ncnc4cccnc34)cccc2c1 [Compound 86, N-(1-Naphtyl)pyrido[3,2-d]pyrimidin-4-amine] | -9.01% | – | – | 18% | –
OC1CCC(Nc2ncnc3cccnc23)c2ccccc21 (stereo not drawn) [Compound 142-E4, 4-(Pyrido[3,2-d]pyrimidin-4-ylamino)tetralin-1-ol] | – | – | – | – | % SK3 inhibition: 10 μM: 48.28 ± 5.99 (N = 3) %; % SK3 inhibition (50 nM, 0.05 µM): 50 nM: 21.9 ± 2.32 (N = 3) %; % SK3 inhibition (100 nM, 0.1 µM): 100 nM: 37.97 ± 3.99 (N = 3) %
CCCCCCOc1cnc2c(NC3CCCc4ccccc43)ncnc2c1 (stereo not drawn) [Compound 74, 7-Hexoxy-N-tetralin-1-yl-pyrido[3,2-d]pyrimidin-3-ium-4-amine chloride] | 18.4% | – | – | 48.5% | –
OC1CCC(Nc2ncnc3cccnc23)c2ccccc21 (stereo not drawn) [Compound 142-E2, 4-(Pyrido[3,2-d]pyrimidin-4-ylamino)tetralin-1-ol] | – | – | – | – | % SK3 inhibition (50 nM, 0.05 µM): 50 nM: 35.72 ± 1.79 (N = 4) %; % SK3 inhibition (100 nM, 0.1 µM): 100 nM: 59.42 ± 3.43 (N = 4) %; % SK3 inhibition (10 μM): 10 μM: 75.11 ± 2.87 (N = 4) %
OC1CCc2ccccc2C1Nc1ncnc2cccnc12 (stereo not drawn) [Compound 107, 1-(pyrido[3,2-d]pyrimidin-4-ylamino)-1,2,3,4-tetrahydro-naphthalen-2-ol] | 29.7% | 46.8% | 54.7% | – | –
c1ccc2c(c1)CCCC2Nc1ncnc2ncccc12 (stereo not drawn) [Compound 47, N-(1,2,3,4-Tetrahydronaphthalen-1-yl)pyrido[2,3-d]pyrimidin-4-amine] | – | – | 7.54% | – | –
O=C1CCC(Nc2ncnc3cccnc23)c2ccccc21 (stereo not drawn) [Compound 152, 4-(Pyrido[3,2-d]pyrimidin-4-ylamino)tetralin-1-one] | 24.4% | 41.5% | 61.2% | – | –
OC1CCC(Nc2ncnc3cccnc23)c2ccccc21 (stereo not drawn) [Compound 142-E1, 4-(Pyrido[3,2-d]pyrimidin-4-ylamino)tetralin-1-ol] | 35.3% | – | – | – | % SK3 inhibition (100 nM, 0.1 µM): 100 nM: 44.55 ± 5.67 (N = 5) %; % SK3 inhibition (10 μM): 10 μM: 57.16 ± 5.51 (N = 4) %
N#Cc1nc(NC2CCCc3ccccc32)c2ncccc2n1 (stereo not drawn) [Compound 32, 4-(1,2,3,4-tetrahydronaphthalen-1-ylamino)pyrido[3,2-d]pyrimidine-2-carbonitrile] | 23.6% | – | – | 27.7% | –
Fc1nc(N[C@H]2CCCc3ccccc32)c2ncccc2n1 [Compound 49, (S)-2-Fluoro-N-(1,2,3,4-tetrahydronaphthalen-1-yl)pyrido [3,2-d]pyrimidin-4-amine] | – | 37.1% | – | 75.8% | inhibition at 0.25 µM (250 nM): 83.1%
Clc1nc(NC2CCCc3ccccc32)c2ncccc2n1 (stereo not drawn) [Compound 6, 2-Chloro-N-(1,2,3,4-tetrahydronaphthalen-1-yl)pyrido[3,2-d]pyrimidin-4-amine] | – | – | 2.65% | – | –
COCOc1ccc2c(c1)CCCC2N (stereo not drawn) [Compound 103, 6-(Methoxymethoxy)-1,2,3,4-tetrahydronaphthalen-1-amine] | 30.7% | 57.9% | 83.8% | 46.9% | –
Clc1ccc(CNc2ncc3ncccc3n2)cc1Cl [Compound 4, N-(3,4-Dichlorobenzyl)pyrido[3,2-d]pyrimidin-2-amine] | – | – | 3.6% | – | –
Cc1cc(C)n(-c2nc(NC3CCCc4ccccc43)c3ncccc3n2)n1 (stereo not drawn) [Compound 67, 2-(3,5-Dimethylpyrazol-1-yl)-N-tetralin-1-yl-pyrido[3,2-d]pyrimidin-4-amine] | – | 35.3% | – | 39.3% | inhibition at 1 µM (1 μM): 82.4%
Fc1ccc2c(c1)C(Nc1ncnc3cccnc13)CCC2 (stereo not drawn) [Compound 90, N-(7-fluoro-1,2,3,4-tetrahydronaphthalen-1-yl)pyrido[3,2-d]pyrimidin-4-amine] | 16.1% | – | – | 39.9% | –
Fc1cnc2c(N[C@H]3CCCc4ccccc43)ncnc2c1 [Compound 158, 7-Fluoro-N-[(1S)-tetralin-1-yl]pyrido[3,2-d]pyrimidin-4-amine] | 35.8% | 64.1% | 84.8% | – | –
c1ccc2c(c1)CCCC2Nc1ncc2ncccc2n1 (stereo not drawn) [Compound 5, N-(1,2,3,4-Tetrahydronaphthalen-1-yl)pyrido[3,2-d]pyrimidin-2-amine] | – | – | 7.7% | – | –
COc1cccc2c1CCCC2Nc1ncnc2cccnc12 (stereo not drawn) [Compound 88, N-(5-methoxy-1,2,3,4-tetrahydronaphthalen-1-yl)pyrido[3,2-d]pyrimidin-4-amine] | 25.8% | – | – | 54.8% | –
Clc1ccc(CNc2ncnc3cccnc23)cc1Cl [Compound 14, N-(3,4-Dichlorobenzyl)pyrido[3,2-d]pyrimidin-4-amine] | – | – | 1.52% | – | –
CC1(C)CCC(Nc2ncnc3cccnc23)c2ccccc21 (stereo not drawn) [Compound 93, N-(4,4-dimethyl-1,2,3,4-tetrahydronaphthalen-1-yl)pyrido[3,2-d]pyrimidin-4-amine] | 45.9% | 53.5% | 71.8% | – | –
OC1CCC(Nc2ncnc3cccnc23)c2ccccc21 (stereo not drawn) [Compound 142-E3, 4-(Pyrido[3,2-d]pyrimidin-4-ylamino)tetralin-1-ol] | – | – | – | – | % SK3 inhibition (50 nM, 0.05 µM): 50 nM: 30.69 ± 3.07 (N = 4) %; % SK3 inhibition (100 nM, 0.1 µM): 100 nM: 49.71 ± 4.48 (N = 4) %; % SK3 inhibition (10 μM): 10 μM: 58.9 ± 6.08 (N = 4) %
Fc1ccc2c(c1)CCCC2Nc1ncnc2cccnc12 (stereo not drawn) [Compound 157, N-(6-Fluorotetralin-1-yl)pyrido[3,2-d]pyrimidin-4-amine] | 32% | 51.1% | 54% | – | –
